Laboratory results reported in US9695155B2, “Herbicidal substituted pyrimidinyloxy benzene compounds” (E. I. DU PONT DE NEMOURS AND COMPANY, priority 2013, dated 2017).

Tests used:
oilseed rape = test: Test D postemergence; type: in vivo, Brassica napus; settings: Brassica napus, post-emergence
Summary of the method: (§1)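 Visual rating vs untreated controls, 0 = no effect, 100 = complete control, taken 7–21 d after treatment. Pre: silt loam soil. Post: potting medium, plants 2–18 cm, 1–4 leaf. Formulation: non-phytotoxic solvent mix + surfactant.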

field violet [1] = test: Test D postemergence; type: in vivo, Viola arvensis; settings: Viola arvensis, post-emergence, scale 0 to 100 (0 no effect, 100 complete control), read-out: Plant response rating, Field Violet
Summary of the method: as §1

bluegrass = test: Test D postemergence; type: in vivo, Poa annua; settings: Poa annua, post-emergence, Postemergence, scale 0 to 100 (0 no effect, 100 complete control), read-out: Plant response rating, Bluegrass
Summary of the method: as §1

buckwheat, wild = test: Test F preemergence; type: in vivo, Polygonum convolvulus; settings: 21 days, scale 0 to 100
Summary of the method: (§2)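 Seeds are planted in a blend of loam and sand. Chemicals in a surfactant-containing non-phytotoxic solvent are applied before emergence. After 21 days under greenhouse conditions, plants are compared with controls and scored visually, 0–100.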

chamomile = test: Test D postemergence; type: in vivo, Matricaria inodora; settings: Tripleurospermum inodorum, post-emergence
Summary of the method: as §1

Italian ryegrass = test: Test D postemergence; type: in vivo, Lolium multiflorum; settings: Lolium multiflorum, post-emergence
Summary of the method: as §1

nutsedge, purple = test: Test F preemergence; type: in vivo, Cyperus rotundus; settings: 21 days, scale 0 to 100
Description: (§3) Seeds of plant species selected from bermudagrass (Cynodon dactylon), surinam grass (Brachiaria decumbens), large (Lg) crabgrass (Digitaria sanguinalis), crabgrass, naked (naked crabgrass, Digitaria nuda), foxtail, green (green foxtail, Setaria viridis), johnsongrass (Sorghum halepense), kochia (Kochia scoparia), morningglory (pitted morningglory, Ipomoea lacunosa), nutsedge, purple (purple nutsedge, Cyperus rotundus), ragweed (common ragweed, Ambrosia elatior), mustard, black (black mustard, Brassica nigra), guineagrass (Panicum maximum), dallisgrass (Paspalum dilatatum), barnyardgrass (Echinochloa crus-galli), sandbur (southern sandbur, Cenchrus echinatus), sowthistle (common sowthistle, Sonchus oleraceous), Italian ryegrass (Lolium multiflorum), signalgrass (broadleaf signalgrass, Brachiaria platyphylla), dayflower (Virginia (VA) dayflower, Commelina virginica), bluegrass (annual bluegrass, Poa annua), quackgrass (Elytrigia repens), mallow (common mallow, Malva sylvestris), buckwheat, wild (wild buckwheat, Polygonum convolvulus), leafy spurge (Euphorbia esula), chickweed (common chickweed, Stellaria media), wild poinsettia (Euphorbia heterophylla), and pigweed (Amaranthus retroflexus) were planted into a blend of loam soil and sand and treated preemergence with test chemicals formulated in a non-phytotoxic solvent mixture which included a surfactant.
(§4) Treated plants and controls were maintained in a greenhouse for 21 days, after which time all species were compared to controls and visually evaluated. Plant response ratings, summarized in Table F, are based on a scale of 0 to 100 where 0 is no effect and 100 is complete control. A dash (-) response means no test result.

field violet [2] = test: Test D preemergence; type: in vivo, Viola arvensis; settings: Viola arvensis, pre-emergence
Summary of the method: as §1

green foxtail = test: Test D postemergence; type: in vivo, Setaria viridis; settings: Setaria viridis, post-emergence
Summary of the method: as §1

kochia = test: Test F preemergence; type: in vivo, Kochia scoparia; settings: 21 days, scale 0 to 100
Description: as §3, §4

speedwell = test: Test D preemergence; type: in vivo, Veronica persica; settings: Veronica persica, pre-emergence
Summary of the method: as §1

[3] = tested on: morningglory (pitted morningglory); test: Test F preemergence; type: in vivo, Ipomoea lacunosa; settings: 21 days, scale 0 to 100
Summary of the method: as §2

bromegrass, downy = test: Test D preemergence; type: in vivo, Bromus tectorum; settings: Bromus tectorum, pre-emergence
Summary of the method: as §1

wild buckwheat = test: Test D postemergence; type: in vivo, Polygonum convolvulus; settings: Fallopia convolvulus, post-emergence, Postemergence, scale 0 to 100 (0 no effect, 100 complete control), read-out: Plant response rating, Buckwheat, Wild
Summary of the method: as §1

lambsquarters = test: Test D preemergence; type: in vivo, Chenopodium album; settings: Chenopodium album, pre-emergence
Summary of the method: as §1

SMILES: N#Cc1cccc(Oc2ncc(Cl)cn2)c1-n1cc(OCC(F)(F)F)cn1 [Compound 274, 3-[(5-chloro-2-pyrimidinyl)oxy]-2-[4-(2,2,2-trifluoroethoxy)-1H-pyrazol-1-yl]benzonitrile]
- plant injury at 16 g/ha (oilseed rape; 16 g ai/ha, scale 0-100, read-out: Plant response rating, Oilseed Rape): 40%
- plant injury at 31 g/ha (oilseed rape; 31 g ai/ha, scale 0 to 100 (0 no effect, 100 complete control), read-out: Plant response rating, Oilseed Rape): 55%
- plant injury at 62 g/ha (oilseed rape; 62 g ai/ha, scale 0 to 100 (0 no effect, 100 complete control), read-out: Plant response rating, Oilseed Rape): 65%
- plant injury at 125 g/ha (oilseed rape; 125 g ai/ha, scale 0 to 100 (0 no effect, 100 complete control), read-out: Plant response rating, Oilseed Rape): 75%
- pest or weed control at 31 g/ha (field violet [1]; 31 g ai/ha): 75%
- pest or weed control at 62 g/ha (field violet [1]; 62 g ai/ha): 70%
- pest or weed control at 125 g/ha (field violet [1]; 125 g ai/ha): 85%
- pest or weed control at 16 g/ha (bluegrass; 16 g ai/ha): 20%
- pest or weed control at 31 g/ha (bluegrass; 31 g ai/ha): 25%
- pest or weed control at 62 g/ha (bluegrass; 62 g ai/ha): 30%
- pest or weed control at 125 g/ha (bluegrass; 125 g ai/ha): 30%
- Plant response rating, Buckwheat, Wild (buckwheat, wild; 16 g ai/ha): 100
- Plant response rating, Buckwheat, Wild (buckwheat, wild; 31 g ai/ha): 100
- Plant response rating, Buckwheat, Wild (buckwheat, wild; 62 g ai/ha): 100
- Plant response rating, Buckwheat, Wild (buckwheat, wild; 125 g ai/ha): 100
- Plant response rating, Buckwheat, Wild (buckwheat, wild; 250 g ai/ha): 100
- pest or weed control at 16 g/ha (chamomile; 16 g ai/ha, scale 0-100, read-out: Plant response rating, Chamomile): 5%
- pest or weed control at 31 g/ha (chamomile; 31 g ai/ha, scale 0 to 100 (0 no effect, 100 complete control), read-out: Plant response rating, Chamomile): 10%
- pest or weed control at 62 g/ha (chamomile; 62 g ai/ha, scale 0 to 100 (0 no effect, 100 complete control), read-out: Plant response rating, Chamomile): 25%
- pest or weed control at 125 g/ha (chamomile; 125 g ai/ha, scale 0 to 100 (0 no effect, 100 complete control), read-out: Plant response rating, Chamomile): 25%
- pest or weed control at 16 g/ha (Italian ryegrass; 16 g ai/ha, scale 0-100, read-out: Plant response rating, Ryegrass, Italian): 15%
- pest or weed control at 31 g/ha (Italian ryegrass; 31 g ai/ha, scale 0 to 100 (0 no effect, 100 complete control), read-out: Plant response rating, Ryegrass, Italian): 25%
- pest or weed control at 62 g/ha (Italian ryegrass; 62 g ai/ha, scale 0 to 100 (0 no effect, 100 complete control), read-out: Plant response rating, Ryegrass, Italian): 35%
- pest or weed control at 125 g/ha (Italian ryegrass; 125 g ai/ha, scale 0 to 100 (0 no effect, 100 complete control), read-out: Plant response rating, Ryegrass, Italian): 35%
- Plant response rating, Nutsedge, Purple (nutsedge, purple; 16 g ai/ha): 35
- Plant response rating, Nutsedge, Purple (nutsedge, purple; 31 g ai/ha): 50
- Plant response rating, Nutsedge, Purple (nutsedge, purple; 62 g ai/ha): 65
- Plant response rating, Nutsedge, Purple (nutsedge, purple; 125 g ai/ha): 85
- Plant response rating, Nutsedge, Purple (nutsedge, purple; 250 g ai/ha): 98
- pest or weed control at 16 g/ha (field violet [2]; 16 g ai/ha, scale 0 (no effect) to 100 (complete control), read-out: Plant response rating, Field Violet): 75%
- pest or weed control at 31 g/ha (field violet [2]; 31 g ai/ha, scale 0-100, read-out: Plant response rating, Field Violet): 100%
- pest or weed control at 62 g/ha (field violet [2]; 62 g ai/ha, scale 0-100, read-out: Plant response rating, Field Violet): 100%
- pest or weed control at 125 g/ha (field violet [2]; 125 g ai/ha, scale 0-100, read-out: Plant response rating, Field Violet): 100%
- pest or weed control at 16 g/ha (green foxtail; 16 g ai/ha, scale 0-100, read-out: Plant response rating, Foxtail, Green): 15%
- pest or weed control at 31 g/ha (green foxtail; 31 g ai/ha, scale 0 to 100 (0 no effect, 100 complete control), read-out: Plant response rating, Foxtail, Green): 20%
- pest or weed control at 62 g/ha (green foxtail; 62 g ai/ha, scale 0 to 100 (0 no effect, 100 complete control), read-out: Plant response rating, Foxtail, Green): 25%
- pest or weed control at 125 g/ha (green foxtail; 125 g ai/ha, scale 0 to 100 (0 no effect, 100 complete control), read-out: Plant response rating, Foxtail, Green): 45%
- Plant response rating, Kochia (kochia; 16 g ai/ha): 100
- Plant response rating, Kochia (kochia; 31 g ai/ha): 100
- Plant response rating, Kochia (kochia; 62 g ai/ha): 100
- Plant response rating, Kochia (kochia; 125 g ai/ha): 100
- Plant response rating, Kochia (kochia; 250 g ai/ha): 100
- pest or weed control at 16 g/ha (speedwell; 16 g ai/ha, scale 0 (no effect) to 100 (complete control), read-out: Plant response rating, Speedwell): 100%
- pest or weed control at 31 g/ha (speedwell; 31 g ai/ha, scale 0 (no effect) to 100 (complete control), read-out: Plant response rating, Speedwell): 100%
- pest or weed control at 125 g/ha (speedwell; 125 g ai/ha, scale 0-100, read-out: Plant response rating, Speedwell): 100%
- Plant response rating, Morningglory ([3]; 16 g ai/ha): 35
- Plant response rating, Morningglory ([3]; 31 g ai/ha): 50
- Plant response rating, Morningglory ([3]; 62 g ai/ha): 65
- Plant response rating, Morningglory ([3]; 125 g ai/ha): 98
- Plant response rating, Morningglory ([3]; 250 g ai/ha): 100
- pest or weed control at 16 g/ha (bromegrass, downy; 16 g ai/ha, scale 0 (no effect) to 100 (complete control), read-out: Plant response rating, Bromegrass, Downy): 0%
- pest or weed control at 31 g/ha (bromegrass, downy; 31 g ai/ha, scale 0-100, read-out: Plant response rating, Bromegrass, Downy): 5%
- pest or weed control at 62 g/ha (bromegrass, downy; 62 g ai/ha, scale 0-100, read-out: Plant response rating, Bromegrass, Downy): 5%
- pest or weed control at 125 g/ha (bromegrass, downy; 125 g ai/ha, scale 0-100, read-out: Plant response rating, Bromegrass, Downy): 35%
- pest or weed control at 16 g/ha (wild buckwheat; 16 g ai/ha): 65%
- pest or weed control at 31 g/ha (wild buckwheat; 31 g ai/ha): 85%
- pest or weed control at 62 g/ha (wild buckwheat; 62 g ai/ha): 100%
- pest or weed control at 125 g/ha (wild buckwheat; 125 g ai/ha): 100%
- pest or weed control at 16 g/ha (lambsquarters; 16 g ai/ha, scale 0 (no effect) to 100 (complete control), read-out: Plant response rating, Lambsquarters): 20%
- pest or weed control at 31 g/ha (lambsquarters; 31 g ai/ha, scale 0-100, read-out: Plant response rating, Lambsquarters): 90%
- pest or weed control at 62 g/ha (lambsquarters; 62 g ai/ha, scale 0-100, read-out: Plant response rating, Lambsquarters): 100%
- pest or weed control at 125 g/ha (lambsquarters; 125 g ai/ha, scale 0-100, read-out: Plant response rating, Lambsquarters): 100%
